How the values were obtained:
[1] = microsome metabolite identification / stability, mouse liver microsomes; assay type: in vitro ADME; settings: 37° C.
Method: (§1) The operation steps for microsome metabolite identification were as follows:
(§2) For the sample with T=60 min, 4 μL of the test sample working solution (1.0 mM), 316 μL of the liver microsome working solution (1.27 mg/mL) and 80 μL of the reduced coenzyme working solution were added sequentially to start the reaction; for the sample with T=0 min, 316 μL of the liver microsome working solution (1.27 mg/mL) was added, and 80 μL of the reduced coenzyme working solution was added to start the reaction, with no test sample incubation; after incubation at 37° C. for 60 min, 1200 μL of stop buffer was added to stop the enzymatic reaction; and for the sample with T=0 min, 4 μL of the test sample working solution (1.0 mM) was added. The sample plate was placed on a vortexer and vortexed at 600 rpm for 5 min. The mixture was centrifuged at 4000 rpm for 10 min, and the supernatant was removed, mixed and purged with nitrogen to dryness at room temperature. The resulting solution was re-dissolved with 300 μL of 10% acetonitrile (0.1% FA), the […] centrifuged at 4000 rpm for 15 min, and the supernatant was transferred to a detection plate for mass spectrometry. Mass spectrometry was performed using an LC/Q-Exactive plus. 7-ethoxycoumarin (10 μM) was selected as a positive control compound, using the procedure same as that of the compounds.

[2] = microsome metabolite identification / stability, rat liver microsomes; assay type: in vitro ADME; settings: 37° C.
Method: as §1, §2

[3] = microsome metabolite identification / stability, beagle liver microsomes; assay type: in vitro ADME; settings: 37° C.
Method: as §1, §2

[4] = microsome metabolite identification / stability, cynomolgus monkey liver microsomes; assay type: in vitro ADME; settings: 37° C.
Method: as §1, §2

[5] = microsome metabolite identification / stability, human liver microsomes; assay type: in vitro ADME; settings: 37° C.
Method: as §1, §2

[6] = Solid state stability of free base crystalline form A (HPLC); assay type: physicochemical; settings: 60° C./1 day, closed space
Method: Solid State Stability of Free Base Crystalline Form A
The XRPD patterns of an initial sample of the free base crystalline form A described above and the free base crystalline form A after 1 day of standing in a closed space at 60° C. are shown in FIG. 5, and the HPLC results are shown in Table 5.

[7] = Free base crystalline form B standing at room temperature (XRPD); assay type: physicochemical; settings: closed space, 5 days
Description: The XRPD patterns of free base crystalline form B of compound A2 before and after standing at room temperature are shown in FIG. 9.

[8] = Free base crystalline form B nitrogen purging (XRPD); assay type: physicochemical; settings: nitrogen purging at 30° C. for 20 minutes

**Q.** Which results are given for `[2H]C([2H])([2H])N1CCC(n2cc(-c3cnc(N)c(OCc4cccc(C#CC(C)(C)O)c4)c3)cn2)CC1` [Compound A2, 4-(3-(((2-amino-S-(1-(1-trideuteromethylpiperidin-4-yl)-1H-pyrazol-4-yl)pyridin-3-yl)oxy)methyl)phenyl)-2-methylbut-3-yn-2-ol]?
**A.** remaining percentage of the parent nucleus after 60 min [1]: 55.0%; remaining percentage of the parent nucleus after 60 min [2]: 52.1%; remaining percentage of the parent nucleus after 60 min [3]: 7.0%; remaining percentage of the parent nucleus after 60 min [4]: 29.6%; remaining percentage of the parent nucleus after 60 min [5]: 83.9%

**Q.** For `CN1CCC(c2ncc(-c3cnc(N)c(OCc4cccc(C#CC(C)(C)O)c4)c3)s2)CC1` [Compound B1, reference compound], which “remaining percentage of the parent nucleus after 60 min” value (from here on “remaining percentage”) [1] is on record?
**A.** 1.24%

**Q.** What about the “remaining percentage” value [2] of the same compound?
**A.** 11.21%

**Q.** What about the “remaining percentage” value [3] of the same compound?
**A.** 0.12%

**Q.** What about the “remaining percentage” value [4] of the same compound?
**A.** 9.11%

**Q.** What about the “remaining percentage” value [5] of the same compound?
**A.** 51.82%

**Q.** What does the source list for `CN1CCC(n2cc(-c3cnc(N)c(OCc4cccc(C#CC(C)(C)O)c4)c3)cn2)CC1` [Compound A1, reference compound]?
**A.** remaining percentage of the parent nucleus after 60 min [1]: 1.13%; remaining percentage of the parent nucleus after 60 min [2]: 2.44%; remaining percentage of the parent nucleus after 60 min [3]: 0.17%; remaining percentage of the parent nucleus after 60 min [4]: 0.36%; remaining percentage of the parent nucleus after 60 min [5]: 43.84%

**Q.** Which results are given for `[2H]C([2H])([2H])N1CCC(n2cc(-c3cnc(N)c(OCc4cccc(C#CC(C)(C)O)c4)c3)cn2)CC1` [4-(3-(((2-amino-S-(1-(1-trideuteromethylpiperidin-4-yl)-1H-pyrazol-4-yl)pyridin-3-yl)oxy)methyl)phenyl)-2-methylbut-3-yn-2-ol]?
**A.** HPLC Area (%) of peak 4 (RRT 1.06) ([6]; initial sample 0.10): 0.09%; HPLC Area (%) of peak 3 (RRT 1.05) ([6]; initial sample 0.22): 0.17%; HPLC Area (%) of peak 1 (RRT 0.95) ([6]; initial sample 0.42): 0.41%; HPLC Area (%) of peak 2 (RRT 1.00, main peak) ([6]; initial sample 99.26): 99.33%; crystalline form stability (XRPD) [7]: tendency of converting into the free base crystalline form A; crystalline form stability (XRPD) [8]: conversion in crystalline forms

**Q.** Which “remaining percentage” value [1] does the source give for `[2H]C([2H])([2H])N1CCC(c2ncc(-c3cnc(N)c(OCc4cccc(C#CC(C)(C)O)c4)c3)s2)CC1` [Compound B2] here?
**A.** 42.8%

**Q.** And the “remaining percentage” value [2]?
**A.** 43.9%

**Q.** And the “remaining percentage” value [3]?
**A.** 8.9%

**Q.** And the “remaining percentage” value [4]?
**A.** 23.4%

**Q.** What about the “remaining percentage” value [5] of the same compound?
**A.** 70.4%

Reference: patent publication US12643876B2, “Deuterated hpki kinase inhibitor, and preparation method therefor and use thereof” (ZHUHAI YUFAN BIOTECHNOLOGIES CO., LTD, priority 2020, dated 2026)
